Experimental data as given in article PMC7955072 (Nature Communications, 2021).
Entries after “also recorded” stand apart in the source; their conditions may differ.

Columns and labels:
[1] = molecular target: full-length ScIleRS (Saccharomyces cerevisiae, UniProt P09436); test: Fluorescence-based thermal shift assay (TSA), full-length ScIleRS wild-type; assay type: binding; conditions: for increase of Tm value of ScIleRS: single ligand (50 μM RM-A, 2 mM L-isoleucine, 2 mM ATP or 50 μM Ile-AMS), Tm without ligand approximately 54 °C; for △Tm: Wild-type, difference between Tm with and without ligands
Chain of full-length ScIleRS (P09436 whole entry): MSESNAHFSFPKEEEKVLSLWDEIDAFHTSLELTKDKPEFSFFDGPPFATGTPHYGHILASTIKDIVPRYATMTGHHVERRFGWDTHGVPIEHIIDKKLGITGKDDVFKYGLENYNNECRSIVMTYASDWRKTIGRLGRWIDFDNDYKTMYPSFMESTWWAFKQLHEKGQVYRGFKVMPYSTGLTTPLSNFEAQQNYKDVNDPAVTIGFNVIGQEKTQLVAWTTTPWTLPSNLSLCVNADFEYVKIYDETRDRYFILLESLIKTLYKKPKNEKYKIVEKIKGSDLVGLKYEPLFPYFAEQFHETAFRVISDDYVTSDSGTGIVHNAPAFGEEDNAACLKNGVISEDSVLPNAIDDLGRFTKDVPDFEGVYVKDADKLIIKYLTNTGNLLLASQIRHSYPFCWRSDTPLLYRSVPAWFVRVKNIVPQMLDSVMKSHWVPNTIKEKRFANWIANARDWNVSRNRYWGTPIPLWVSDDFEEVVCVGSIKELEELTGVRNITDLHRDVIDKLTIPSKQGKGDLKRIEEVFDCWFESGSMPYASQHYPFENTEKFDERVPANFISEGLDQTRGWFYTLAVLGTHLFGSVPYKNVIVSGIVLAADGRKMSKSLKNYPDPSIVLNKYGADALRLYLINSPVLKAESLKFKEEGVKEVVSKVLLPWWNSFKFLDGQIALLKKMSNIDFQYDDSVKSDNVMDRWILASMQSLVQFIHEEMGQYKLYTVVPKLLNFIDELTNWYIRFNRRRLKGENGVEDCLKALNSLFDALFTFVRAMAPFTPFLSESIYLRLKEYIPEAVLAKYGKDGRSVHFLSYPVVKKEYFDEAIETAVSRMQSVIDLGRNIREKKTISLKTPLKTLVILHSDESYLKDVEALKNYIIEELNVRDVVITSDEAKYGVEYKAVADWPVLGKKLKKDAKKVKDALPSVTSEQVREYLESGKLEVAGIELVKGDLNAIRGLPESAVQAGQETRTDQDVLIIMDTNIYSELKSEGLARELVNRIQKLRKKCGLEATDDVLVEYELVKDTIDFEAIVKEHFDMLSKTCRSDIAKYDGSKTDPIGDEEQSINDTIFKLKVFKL
Method: (§1) Ligand binding usually stabilizes the protein during the thermal denaturation process, and tighter binding usually causes a larger positive shift in the protein melting temperature (Tm)[45]. […] The fluorescence intensity was recorded by a StepOnePlus Real-Time PCR instrument (Life Technologies), and the maximums of the first derivatives were determined to calculate Tm values. Each Tm value was an average of triple assays.

[2] = molecular target: C-terminal truncated ScIleRS (residues 1-984) (Saccharomyces cerevisiae, UniProt P09436); test: Fluorescence-based thermal shift assay (TSA), C-terminal truncated ScIleRS; assay type: binding; conditions: protein bound with copurified Ile-AMP
Chain of C-terminal truncated ScIleRS (residues 1-984) (P09436 1-984): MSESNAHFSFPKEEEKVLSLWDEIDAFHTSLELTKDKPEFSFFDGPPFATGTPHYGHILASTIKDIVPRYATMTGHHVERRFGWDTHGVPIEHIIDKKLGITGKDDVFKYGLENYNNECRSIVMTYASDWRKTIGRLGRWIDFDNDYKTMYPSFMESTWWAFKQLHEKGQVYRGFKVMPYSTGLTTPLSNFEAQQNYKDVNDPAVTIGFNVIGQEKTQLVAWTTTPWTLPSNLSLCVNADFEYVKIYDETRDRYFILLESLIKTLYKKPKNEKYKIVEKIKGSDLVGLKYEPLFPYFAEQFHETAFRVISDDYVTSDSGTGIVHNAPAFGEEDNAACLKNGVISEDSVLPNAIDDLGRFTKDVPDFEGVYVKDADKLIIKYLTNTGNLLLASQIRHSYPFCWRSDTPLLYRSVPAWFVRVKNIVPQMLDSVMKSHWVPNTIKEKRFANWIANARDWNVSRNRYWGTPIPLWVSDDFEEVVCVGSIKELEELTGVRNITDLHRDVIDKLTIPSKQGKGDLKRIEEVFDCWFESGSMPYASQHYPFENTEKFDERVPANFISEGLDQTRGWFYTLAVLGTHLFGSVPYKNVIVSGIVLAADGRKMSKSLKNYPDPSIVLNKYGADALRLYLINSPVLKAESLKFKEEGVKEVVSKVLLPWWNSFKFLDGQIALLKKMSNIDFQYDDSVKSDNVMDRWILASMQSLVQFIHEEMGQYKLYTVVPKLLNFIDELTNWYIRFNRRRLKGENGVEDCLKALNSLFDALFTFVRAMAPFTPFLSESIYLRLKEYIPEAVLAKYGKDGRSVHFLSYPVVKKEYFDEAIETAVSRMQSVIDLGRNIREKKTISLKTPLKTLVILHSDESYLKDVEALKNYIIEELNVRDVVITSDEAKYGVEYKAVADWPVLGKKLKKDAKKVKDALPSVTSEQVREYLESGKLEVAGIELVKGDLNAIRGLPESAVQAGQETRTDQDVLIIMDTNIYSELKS
Method: The binding of RM-A to IleRS and the impact of intermediate analogue (Ile-AMS, MedChemExpress) or substrates on binding were evaluated by the fluorescence-based thermal shift assay (TSA). Ligand binding usually stabilizes the protein during the thermal denaturation process, and tighter binding usually causes a larger positive shift in the protein melting temperature (Tm)[45]. […]. The mixtures were incubated at 25 °C for 10 min and then heated from 25 °C to 95 °C at a rate of 1 °C/min. The fluorescence intensity was recorded by a StepOnePlus Real-Time PCR instrument (Life Technologies), and the maximums of the first derivatives were determined to calculate Tm values. Each Tm value was an average of triple assays.

[3] = molecular target: ScIleRS F48A (Saccharomyces cerevisiae, UniProt P09436, F48A); assay type: binding
Chain of ScIleRS F48A (P09436 whole entry F48A): as the sequence (P09436 whole entry) above, with F48A counted along it
Method: as §1

[4] = molecular target: ScIleRS R462A (Saccharomyces cerevisiae, UniProt P09436, R462A); assay type: binding
Chain of ScIleRS R462A (P09436 whole entry R462A): as the sequence (P09436 whole entry) above, with R462A counted along it
Method: as §1

[5] = molecular target: ScIleRS F191A (Saccharomyces cerevisiae, UniProt P09436, F191A); assay type: binding
Chain of ScIleRS F191A (P09436 whole entry F191A): as the sequence (P09436 whole entry) above, with F191A counted along it
Method: as §1

[6] = molecular target: ScIleRS R454A (Saccharomyces cerevisiae, UniProt P09436, R454A); assay type: binding
Chain of ScIleRS R454A (P09436 whole entry R454A): as the sequence (P09436 whole entry) above, with R454A counted along it
Method: as §1

[7] = molecular target: ScIleRS W449A (Saccharomyces cerevisiae, UniProt P09436, W449A); assay type: binding
Chain of ScIleRS W449A (P09436 whole entry W449A): as the sequence (P09436 whole entry) above, with W449A counted along it
Method: as §1

[8] = molecular target: ScIleRS F48Y (Saccharomyces cerevisiae, UniProt P09436, F48Y); assay type: binding
Chain of ScIleRS F48Y (P09436 whole entry F48Y): as the sequence (P09436 whole entry) above, with F48Y counted along it
Method: as §1

[9] = molecular target: ScIleRS P90A (Saccharomyces cerevisiae, UniProt P09436, P90A); assay type: binding
Chain of ScIleRS P90A (P09436 whole entry P90A): as the sequence (P09436 whole entry) above, with P90A counted along it
Method: as §1

[10] = molecular target: ScIleRS T572A (Saccharomyces cerevisiae, UniProt P09436, T572A); assay type: binding
Chain of ScIleRS T572A (P09436 whole entry T572A): as the sequence (P09436 whole entry) above, with T572A counted along it
Method: as §1

[11] = molecular target: ScIleRS W529A (Saccharomyces cerevisiae, UniProt P09436, W529A); assay type: binding
Chain of ScIleRS W529A (P09436 whole entry W529A): as the sequence (P09436 whole entry) above, with W529A counted along it
Method: as §1

[12] = molecular target: ScIleRS W402A (Saccharomyces cerevisiae, UniProt P09436, W402A); assay type: binding
Chain of ScIleRS W402A (P09436 whole entry W402A): as the sequence (P09436 whole entry) above, with W402A counted along it
Method: as §1

[13] = molecular target: ScIleRS D527A (Saccharomyces cerevisiae, UniProt P09436, D527A); assay type: binding
Chain of ScIleRS D527A (P09436 whole entry D527A): as the sequence (P09436 whole entry) above, with D527A counted along it
Method: as §1

[14] = molecular target: ScIleRS V89A (Saccharomyces cerevisiae, UniProt P09436, V89A); assay type: binding
Chain of ScIleRS V89A (P09436 whole entry V89A): as the sequence (P09436 whole entry) above, with V89A counted along it
Method: as §1

[15] = molecular target: ScIleRS Y571A (Saccharomyces cerevisiae, UniProt P09436, Y571A); assay type: binding
Chain of ScIleRS Y571A (P09436 whole entry Y571A): as the sequence (P09436 whole entry) above, with Y571A counted along it
Method: as §1

[16] = molecular target: ScIleRS del_KMSKS (Saccharomyces cerevisiae, UniProt P09436, DEL601-605/K608S/L607G); assay type: binding
Chain of ScIleRS del_KMSKS (P09436 other isoform, or with tags, fused parts or gaps DEL601-605/L607G/K608S): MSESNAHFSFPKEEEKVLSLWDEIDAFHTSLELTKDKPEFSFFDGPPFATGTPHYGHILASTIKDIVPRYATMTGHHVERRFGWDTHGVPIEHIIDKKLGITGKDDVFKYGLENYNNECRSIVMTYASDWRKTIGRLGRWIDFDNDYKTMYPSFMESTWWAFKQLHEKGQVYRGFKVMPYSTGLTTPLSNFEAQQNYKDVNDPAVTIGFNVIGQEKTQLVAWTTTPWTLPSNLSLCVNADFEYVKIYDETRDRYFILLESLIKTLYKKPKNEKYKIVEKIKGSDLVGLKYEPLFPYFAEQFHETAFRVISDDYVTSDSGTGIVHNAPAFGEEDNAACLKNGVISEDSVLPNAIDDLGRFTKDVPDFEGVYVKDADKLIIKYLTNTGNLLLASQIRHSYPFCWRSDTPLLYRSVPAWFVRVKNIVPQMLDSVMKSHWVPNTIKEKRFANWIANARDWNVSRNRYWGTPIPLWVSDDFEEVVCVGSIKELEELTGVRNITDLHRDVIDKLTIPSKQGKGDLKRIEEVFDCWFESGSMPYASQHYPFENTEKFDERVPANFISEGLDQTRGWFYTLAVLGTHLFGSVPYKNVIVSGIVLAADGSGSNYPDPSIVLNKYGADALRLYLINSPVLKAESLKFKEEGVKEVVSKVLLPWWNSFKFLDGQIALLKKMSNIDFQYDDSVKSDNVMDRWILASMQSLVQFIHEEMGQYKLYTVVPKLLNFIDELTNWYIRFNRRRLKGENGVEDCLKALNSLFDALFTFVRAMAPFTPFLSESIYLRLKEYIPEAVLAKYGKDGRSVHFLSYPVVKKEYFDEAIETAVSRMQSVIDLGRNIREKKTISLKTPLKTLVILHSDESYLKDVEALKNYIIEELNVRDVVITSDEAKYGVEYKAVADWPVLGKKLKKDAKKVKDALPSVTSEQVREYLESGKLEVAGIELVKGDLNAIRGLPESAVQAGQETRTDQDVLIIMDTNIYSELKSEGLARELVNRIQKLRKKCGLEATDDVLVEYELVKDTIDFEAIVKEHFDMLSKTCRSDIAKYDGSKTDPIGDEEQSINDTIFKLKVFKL
Method: as §1

[17] = molecular target: ScIleRS R460A (Saccharomyces cerevisiae, UniProt P09436, R460A); assay type: binding
Chain of ScIleRS R460A (P09436 whole entry R460A): as the sequence (P09436 whole entry) above, with R460A counted along it
Method: as §1

[18] = molecular target: ScIleRS W456A (Saccharomyces cerevisiae, UniProt P09436, W456A); assay type: binding
Chain of ScIleRS W456A (P09436 whole entry W456A): as the sequence (P09436 whole entry) above, with W456A counted along it
Method: as §1

[19] = system: IleRS; conditions: cited from earlier work

Nc1ncnc2c1ncn2[C@@H]1O[C@H](COP(=O)(O)OP(=O)(O)OP(=O)(O)O)[C@@H](O)[C@H]1O [ATP]
increase of Tm value of ScIleRS [1]: approximately 4 °C | Tm value of C-terminal truncated ScIleRS [2]: not improved

CC[C@H](C)[C@H](N)C(=O)NS(=O)(=O)OC[C@H]1O[C@@H](n2cnc3c(N)ncnc32)[C@H](O)[C@@H]1O [Ile-AMS]
△Tm [3]: 12.5 °C | △Tm [4]: 26 °C | △Tm [5]: 26.5 °C | △Tm [6]: 21.6 °C | △Tm [7]: 24.9 °C | △Tm [8]: 21.6 °C | △Tm [9]: 22.1 °C | △Tm [10]: 22.7 °C | △Tm [11]: 18.4 °C | △Tm [12]: 24.2 °C | △Tm [13]: 24.2 °C | △Tm [14]: 24.7 °C | △Tm [15]: 24.6 °C | △Tm [16]: 20.2 °C | △Tm [17]: 25.7 °C | △Tm [18]: 18.8 °C | △Tm [1]: 23.4 °C | increase of Tm value of ScIleRS [1]: ~23 °C

CC[C@H](C)[C@H](N)C(=O)O [L-isoleucine]
△Tm [3]: 0.2 °C | △Tm [4]: 4 °C | △Tm [5]: 8.3 °C | △Tm [6]: 6.6 °C | △Tm [7]: 7.8 °C | △Tm [8]: 4.4 °C | △Tm [9]: 6.4 °C | △Tm [10]: 4.8 °C | △Tm [11]: 1.9 °C | △Tm [12]: 6.9 °C | △Tm [13]: 5.2 °C | △Tm [14]: 4.7 °C | △Tm [15]: 4 °C | △Tm [16]: 8.5 °C | △Tm [17]: 3.1 °C | △Tm [18]: 0.7 °C | △Tm [1]: 7.9 °C | increase of Tm value of ScIleRS [1]: ~8 °C | Tm value of C-terminal truncated ScIleRS [2]: not improved

CC(/C=C/[C@H](O)[C@@H](C)/C=C/C(=O)O)=C\C[C@H]1O[C@@]2(CC[C@H](C)[C@H](/C=C/C(C)=C/C(=O)O)O2)CC[C@@H]1C [SF-A, Spirofungin A]
inhibition of IleRS [19]: only weakly inhibit

reveromycin T [RM-T]
inhibitory activity against IleRS compared with RM-A [19]: stronger inhibitory activity; also recorded: even higher inhibitory activity
